Source: patent US12473264B2, “Inhibitors of erythrocyte band 3 tyrosine phosphorylation and uses thereof” (Purdue Research Foundation, priority 2019, dated 2025)
Where two headings read alike, the source gives them in different places.

How the values were obtained:
[1] = target: Syk (Homo sapiens, UniProt P43405); experiment: ADP-Glo kinase inhibition assay, Syk; type: biochemical
Protocol: Syk kinase inhibition assays were run on 96-well plates using the ADP-Glo assay kit according to manufacturer's specifications. All kinase reactions were run using Kinase Assay Buffer III supplemented with DTT and MnCl2 as required by the kinase of interest to generate kinase reaction buffer. Stock solutions of kinase inhibitor in DMSO were diluted into 2× kinase reaction buffer and the final concentration of DMSO in each kinase reaction was held below 1%. […] Kinase inhibitors were incubated with kinase and substrate prior to addition of ATP for 20 min at room temperature (RT). After addition of ATP to the wells, the plate was incubated at 37° C. for 30-60 minutes depending on the kinase used. After incubation the plate was cooled to RT for 5 minutes prior to addition of 25 μL ADP-Glo reagent and incubation on a shaker for 40 minutes. After 40 minutes, 50 μL Kinase Detection reagent were added and the plate was protected from light while incubated on a shaker. After 30 min, the luminescence was recorded using a Neo2 plate reader and 1 sec integration of the signal. The background signal was subtracted from all readings and the signal was normalized to the maximum signal obtained in the absence of inhibitor. Data were plotted and inhibition curves fit using Graphpad software.

[2] = target: EGFR (Homo sapiens, UniProt P00533); experiment: ADP-Glo kinase assay, EGFR; type: biochemical
Protocol: (§1) Syk kinase inhibition assays were run on 96-well plates using the ADP-Glo assay kit according to manufacturer's specifications. All kinase reactions were run using Kinase Assay Buffer III supplemented with DTT and MnCl2 as required by the kinase of interest to generate kinase reaction buffer. Stock solutions of kinase inhibitor in DMSO were diluted into 2× kinase reaction buffer and the final concentration of DMSO in each kinase reaction was held below 1%. The total volume of each kinase reaction was 25 μL apportioned as: 5 μL 2× kinase reaction buffer or diluted kinase inhibitor, 5 μL 1 mg/mL (stock) kinase substrate, 10 μL kinase in kinase reaction buffer, and 5 μL 250 μM ATP diluted into kinase reaction buffer. Kinase inhibitors were incubated with kinase and substrate prior to addition of ATP for 20 min at room temperature (RT). After addition of ATP to the wells, the plate was incubated at 37° C. for 30-60 minutes depending on the kinase used. After incubation the plate was cooled to RT for 5 minutes prior to addition of 25 μL ADP-Glo reagent and incubation on a shaker for 40 minutes. […] After 30 min, the luminescence was recorded using a Neo2 plate reader and 1 sec integration of the signal. The background signal was subtracted from all readings and the signal was normalized to the maximum signal obtained in the absence of inhibitor. […]

[3] = tested on: Syk phosphorylation of Band 3; experiment: Band 3 tyrosine phosphorylation induced in healthy donor RBCs by OV (Western blot); type: cell-based; conditions: Homo sapiens; healthy donor RBCs treated with OV; read-out: in vitro IC50 against Syk phosphorylation of Band 3
Protocol: (§2) RBC ghosts were then prepared by mixing 150 μL of packed RBCs with 1500 μL of ice-cold ghost buffer (5 mM Na2HPO4, 1 mM EDTA, pH 8.0, containing 1 mM phenylmethylsulfonyl fluoride (PMSF) and 1% phosphatase cocktail inhibitors 2 and 3) and allowed to sit on ice for 30 min. Samples were centrifuged at 13000 rpm for 15 min at 4° C. and supernatants were removed. Ghost pellets were washed an additional 3×, after which 10 μL was removed for determination of protein concentration using Pierce™ Rapid Gold BCA Protein Assay (Thermo Fisher Scientific, A53226). Residual ghosts were solubilized in 4× Laemmli buffer (Bio-Rad) at a concentration of 1 […] and warmed to 30° C. for 30 min prior to storage at −20° C. until use.
(§3) Band 3 tyrosine phosphorylation was quantitated by loading 30 μL of each thawed sample onto a 10% SDS-PAGE gel and separating at 90, 120 and 150 V for 30, 45 and 20 minutes, respectively. Proteins were then transferred to a nitrocellulose membrane at 100 V for 2 hours, after which membranes were immunostained with anti-phosphotyrosine (1:1000, Cell Signaling, Inc.) or anti-actin (1:20000) antibodies dissolved in TBST (25 mM Tris, 140 mM NaCl, 3 mM KCl, 0.05% v/v Tween-20) containing 5% w/v milk. […] Band 3 tyrosine phosphorylation intensity/densitometry was quantitated using image J software.

[4] = tested on: healthy donor human RBCs; experiment: Hemolysis (Hb release) induced by phosphatase inhibitors in healthy donor human RBCs; type: cell-based
Excerpt: (§4) Cayman's hemoglobin colorimetric assay was used to quantitate the level of cell-free plasma hemoglobin in both patient plasma samples and in the above kinase-treated RBC supernatant samples according to the manufacturer's instruction.

[5] = tested on: SCD patient RBCs; experiment: Free plasma hemoglobin in SCD patient samples; type: cell-based, human; conditions: 1 μM S701, SCD patient samples
Protocol: (§5) For evaluation of the effect of tyrosine kinase inhibitors on release of RBC-derived MPs from sickle cells suspended at 30% Hct in PBS-G, 500 μL washed RBCs were treated for 1 hour with the desired concentration of tyrosine kinase inhibitor or vehicle control, and then shaken at 1400 RPM for 4 h. Newly released microparticles were then separated from residual RBCs by centrifuging at 800 rcf for 10 minutes, collecting the supernatant, and analyzing the supernatant for RBC-derived MPs as described above.
as §4

[6] = tested on: SCD patient RBCs; experiment: Erythrocyte-derived microparticle release in SCD patient samples; type: cell-based, human; conditions: SCD patient samples incubated with 1 μM S701 (untreated SCD 18, healthy seven)
Protocol: Plasma from sickle cell samples (see above) was centrifuged 2× at 2500 rcf for 15 minutes to remove platelets and 100 μL of supernatant containing MPs was incubated for 20 minutes on ice with 0.5 μL of BV421 mouse-anti-human 235a antibody (anti-glycophorin A; BD Biosciences #562938). Samples were diluted with 1000 μL of stain buffer (BD Biosciences #554656), transferred to BD Trucount™ tubes (BD Biosciences #340334) and analyzed on an Attune NxT Flow Cytometer by utilizing violet fluorescent trigger channel. The absolute number of RBC-derived microparticles was then calculated using the following formula,
as §5

[7] = tested on: SCD patient RBCs; experiment: RBC velocity through microfluidic capillary; type: cell-based, human; conditions: concentrations as low as 50 nM, various levels of oxygenation
Protocol: Microfluidic capillary devices were fabricated with polydimethylsiloxane (PDMS) using standard soft photolithography techniques. Capillaries were constructed with a straight channel (w=75 μm, h=6.52 μm) containing a constriction (wc=5 μm and h=6.52 μm). To control the oxygen level inside the channel, the microfluidic device was submerged in a customized glass chamber filled with sodium sulfite solution (0M, 0.01M, 0.1M or 1M) (Sigma-Aldrich). The oxygen level was calibrated using 25 μM of tris(2,2′-bipyridyl)dichlororuthenium(II) hexahydrate (an O2 indicator, Sigma-Aldrich) then converted into a PO2 value using the Stern-Volmer equation, I0/I=1+PO2×Kq, where I^0 is the maximum fluorescence intensity and Kq is the quenching constant. The calibration results are obtained.
Sickle cell blood samples were obtained from five patients (n=5, age 4-9 years old) and RBCs were isolated by centrifugation. […] For quantitation of RBC velocity in a microfluidic capillary, the RBC suspension was injected into the capillary at a constant pressure of 1.6 psi, and the velocity of the RBCs in the constriction was recorded using a high-speed video camera (Phantom Miro M120, 1900 frames per second) mounted on an inverted microscope (Leica DMI 6000B). Data were analyzed using Phantom Camera Control software.

[8] = tested on: phosphorylated Band 3; experiment: Band 3 tyrosine phosphorylation in SCD RBC lysates (Western blot); type: cell-based, human; conditions: 1 μM S701, SCD RBC lysates, anti-pY Western blot
Protocol: as §2, §3

[9] = target: SRC (Homo sapiens, UniProt P12931); experiment: ADP-Glo kinase assay, SRC; type: biochemical; conditions: FIG. 6B
Protocol: as §1

[10] = target: T1, ZAP70 (Homo sapiens, UniProt P43403); experiment: ADP-Glo kinase assay, ZAP70; type: biochemical; conditions: FIG. 6B
T1 sequence (P43403 1-619): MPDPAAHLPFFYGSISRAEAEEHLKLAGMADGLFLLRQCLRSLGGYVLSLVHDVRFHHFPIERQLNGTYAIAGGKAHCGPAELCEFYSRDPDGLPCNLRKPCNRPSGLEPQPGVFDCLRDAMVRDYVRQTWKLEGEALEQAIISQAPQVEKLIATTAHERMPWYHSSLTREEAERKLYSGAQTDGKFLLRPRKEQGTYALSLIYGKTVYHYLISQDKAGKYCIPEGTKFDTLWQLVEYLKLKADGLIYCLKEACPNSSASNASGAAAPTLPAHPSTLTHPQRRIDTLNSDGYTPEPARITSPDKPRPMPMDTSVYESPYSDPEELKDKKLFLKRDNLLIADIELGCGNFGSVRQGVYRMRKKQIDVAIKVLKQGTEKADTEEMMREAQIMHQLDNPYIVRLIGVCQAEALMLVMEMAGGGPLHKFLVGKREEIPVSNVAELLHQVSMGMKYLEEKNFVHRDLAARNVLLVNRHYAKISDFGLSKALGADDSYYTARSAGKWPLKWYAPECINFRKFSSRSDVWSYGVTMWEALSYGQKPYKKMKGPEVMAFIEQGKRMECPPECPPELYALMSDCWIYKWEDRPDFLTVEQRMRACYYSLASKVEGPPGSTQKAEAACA
Protocol: as §1

[11] = target: Lyn A (Homo sapiens, UniProt P07948); experiment: ADP-Glo kinase assay, Lyn A; type: biochemical; conditions: FIG. 6B
Protocol: as §1

Chain of EGFR (P00533 25-1210): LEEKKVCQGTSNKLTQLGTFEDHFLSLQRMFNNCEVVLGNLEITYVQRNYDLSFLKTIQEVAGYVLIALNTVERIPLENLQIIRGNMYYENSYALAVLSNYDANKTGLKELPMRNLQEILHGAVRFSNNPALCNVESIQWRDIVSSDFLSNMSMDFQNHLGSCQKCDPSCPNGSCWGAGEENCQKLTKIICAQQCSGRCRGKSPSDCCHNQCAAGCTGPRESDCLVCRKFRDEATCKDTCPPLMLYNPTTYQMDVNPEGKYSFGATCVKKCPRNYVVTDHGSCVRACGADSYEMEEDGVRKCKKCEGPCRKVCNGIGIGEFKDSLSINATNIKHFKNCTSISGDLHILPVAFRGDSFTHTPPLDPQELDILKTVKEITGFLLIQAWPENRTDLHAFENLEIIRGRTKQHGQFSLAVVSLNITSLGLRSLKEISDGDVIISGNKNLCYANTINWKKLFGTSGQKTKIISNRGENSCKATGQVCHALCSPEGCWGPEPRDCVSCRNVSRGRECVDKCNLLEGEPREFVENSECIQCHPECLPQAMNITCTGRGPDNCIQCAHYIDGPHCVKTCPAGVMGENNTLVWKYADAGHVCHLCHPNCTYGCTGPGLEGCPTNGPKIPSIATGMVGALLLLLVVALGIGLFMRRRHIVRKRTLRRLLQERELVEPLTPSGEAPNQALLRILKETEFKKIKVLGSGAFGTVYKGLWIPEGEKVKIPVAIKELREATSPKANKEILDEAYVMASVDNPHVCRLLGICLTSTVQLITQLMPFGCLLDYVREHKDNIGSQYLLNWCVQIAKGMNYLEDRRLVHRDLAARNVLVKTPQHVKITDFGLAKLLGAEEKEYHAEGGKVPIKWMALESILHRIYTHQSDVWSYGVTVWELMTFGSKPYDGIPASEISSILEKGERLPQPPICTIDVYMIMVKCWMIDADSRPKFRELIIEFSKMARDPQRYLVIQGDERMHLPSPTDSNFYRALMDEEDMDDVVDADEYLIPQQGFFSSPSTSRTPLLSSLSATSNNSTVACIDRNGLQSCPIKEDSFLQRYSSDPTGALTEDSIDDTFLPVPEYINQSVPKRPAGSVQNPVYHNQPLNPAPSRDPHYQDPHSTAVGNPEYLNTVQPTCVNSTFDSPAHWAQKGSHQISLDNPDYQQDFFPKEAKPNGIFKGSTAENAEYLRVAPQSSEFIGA
Chain of Lyn A (P07948 whole entry): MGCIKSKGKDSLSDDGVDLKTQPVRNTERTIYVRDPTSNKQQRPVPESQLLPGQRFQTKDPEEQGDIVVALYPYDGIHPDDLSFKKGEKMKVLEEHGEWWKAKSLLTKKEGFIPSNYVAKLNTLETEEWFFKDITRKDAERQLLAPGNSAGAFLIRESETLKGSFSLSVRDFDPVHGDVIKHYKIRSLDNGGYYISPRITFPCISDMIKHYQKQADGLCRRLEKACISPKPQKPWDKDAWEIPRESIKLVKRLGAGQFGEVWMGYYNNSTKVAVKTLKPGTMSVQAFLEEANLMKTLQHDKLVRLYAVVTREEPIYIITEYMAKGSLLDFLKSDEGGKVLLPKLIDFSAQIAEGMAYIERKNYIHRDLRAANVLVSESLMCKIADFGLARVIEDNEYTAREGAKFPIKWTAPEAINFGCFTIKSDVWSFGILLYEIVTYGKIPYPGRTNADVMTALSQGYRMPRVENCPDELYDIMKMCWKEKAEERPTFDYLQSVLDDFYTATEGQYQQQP
Chain of SRC (P12931 whole entry): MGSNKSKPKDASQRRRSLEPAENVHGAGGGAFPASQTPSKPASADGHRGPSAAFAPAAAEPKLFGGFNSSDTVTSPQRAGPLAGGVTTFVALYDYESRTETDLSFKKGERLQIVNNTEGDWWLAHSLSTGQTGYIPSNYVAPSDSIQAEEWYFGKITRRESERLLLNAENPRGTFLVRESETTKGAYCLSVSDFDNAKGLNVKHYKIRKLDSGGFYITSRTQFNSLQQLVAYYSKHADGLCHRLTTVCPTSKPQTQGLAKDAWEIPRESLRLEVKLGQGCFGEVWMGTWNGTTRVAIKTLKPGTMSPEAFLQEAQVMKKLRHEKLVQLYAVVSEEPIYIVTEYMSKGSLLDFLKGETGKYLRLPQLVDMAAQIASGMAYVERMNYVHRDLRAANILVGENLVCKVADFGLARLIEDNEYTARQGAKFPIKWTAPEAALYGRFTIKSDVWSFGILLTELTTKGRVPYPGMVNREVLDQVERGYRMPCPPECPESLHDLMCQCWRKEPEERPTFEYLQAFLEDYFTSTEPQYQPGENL

COc1cc(Nc2ncc(F)c(NC(=O)c3cc(O)c(O)c(O)c3)n2)cc(OC)c1OC [S701, N-(5-fluoro-2-((3,4,5-trimethoxyphenyl)amino)pyrimidin-4-yl)-3,4,5-trihydroxybenzamide]
IC50 ([1]; cell-free): 0.581 µM
inhibitory effect on EGFR [2]: has to be in really high concentrations to have any inhibitory effect
IC50 [3]: ~5 µM
percent inhibition of hemolysis at 5 µM ([4]; 5 μM S701, Diamide, read-out: inhibition of hemolysis, Diamide): 50%
percent inhibition of hemolysis at 5 µM ([4]; 5 μM S701, Phenylhydrazine, read-out: inhibition of hemolysis, Phenylhydrazine): 44%
percent inhibition of hemolysis at 5 µM ([4]; 5 μM S701, phosphatase inhibitor OV, read-out: inhibition of hemolysis, OV): 25%
decrease of concentration of free plasma hemoglobin [5]: 47%
number of MPs released per μL of plasma [6]: five
RBC velocity through a 5 μm tube [7]: increased RBC velocity
phosphorylated Band 3 [8]: notable decrease in phosphorylated Band 3

COc1ccc(Nc2nc(Nc3cccc4[nH]ccc34)ncc2F)c(-c2ccc(O)c(O)c2)c1 [S602, 2′-((2-((1H-indol-4-yl)amino)-5-fluoropyrimidin-4-yl)amino)-5′-methoxy-[1,1′-biphenyl]-3,4-diol]
Syk inhibition compared to S701 ([1]; FIG. 6B): even better IC50 value for inhibiting Syk as compared to S701
inhibitory effect on EGFR [2]: very significantly higher concentrations to have an impact
inhibitory effect on SRC [9]: very significantly higher concentrations to have an impact
inhibitory effect on ZAP 70 [10]: very significantly higher concentrations to have an impact
inhibitory effect on Lyn A [11]: very significantly higher concentrations to have an impact
